In patent US8685953B2, “Linear and cyclic guanidine derivatives, method of preparation and uses thereof” (Universita Degli Studi Di Siena, priority 2008, dated 2014):
≈ marks a conversion by molar mass, not a printed value. Where a name gives a salt, the structure may show the parent alone. Read-outs that look alike come from different tables or passages of the source.

Legend:
Test in all cases: MIC determination by AFST-EUCAST standard methodology
C. parapsilosis 64E = assay type: cell-based; conditions: 24 h, visually and spectrophotometrically, read-out: Antifungal activity, expressed as MIC50
Experimental: (§1) Determination of MICs by AFST-EUCAST Standard Methodology
(§2) Assay medium. The assay medium was RPMI […] without NaHCO3 and with L-glutamine (Sigma Aldrich, Italy), buffered at pH 7.0 with 0.165 M morpholinepropanesulphonic acid (Sigma Aldrich, Italy) and supplemented with 2% (w/v) glucose. The medium, prepared as double-strength solution, was sterilized by filtration and diluted 1:2 (v/v) with the fungal inoculum prepared in sterile distilled water.
(§3) The yeast isolates were grown on Sabouraud dextrose agar (Oxoid, Madrid, Spain) for 48 h at 37° C. before testing. Suspensions were prepared by combining five distinct colonies of each culture of >1 mm diameter. A spectrophotometric procedure for inoculum preparation was used. The final inoculum suspension, prepared in sterile distilled water, contained between 0.5·10^5 and 2.5·10^5 cfu/mL.
(§4) Stock solutions of test compounds were prepared in 100% dimethyl sulfoxide. Stock solutions were prepared as 100× concentration relative to the highest concentration in the antifungal activity test, and frozen at −70° C. until used.
(§5) Sterile plastic micro titration plates containing flat-bottomed wells were used. The plates contained serial dilution of the antifungal agents with a volume of assay medium of 100 μL/well. Two drug-free medium wells were used as sterility and growth controls. The trays were inoculated with 100 μL/well of the final inoculum, with the exception of sterility control wells. The range of concentrations tested for each drug was 1.25-80 μM. The microtitration plates were incubated at 37° C. for 24 h. The minimal inhibitory concentrations (MICs) were determined at 24 h both visually and spectrophotometrically.
(§6) By visual endpoint determination, MICs were determined according to a S-1-R scale, with S (susceptible) indicating an optical clear culture, I (intermediate susceptibility) indicating a slightly hazy culture, and R (resistant) indicating no reduction in turbidity. The MIC50 was defined as the lowest concentration of a drug which correspond to a S culture.
(§7) Microtitration plates were stirred using a microtitration plate shaker before reading to ensure uniform turbidity. MICs were obtained by measuring the absorbance at 450 nm with a microtitration plate reader. The value of the blank was subtracted from reading of the rest of the wells. Two endpoints were defined for each antifungal agent tested, with MIC80 indicating the lowest drug concentration resulting in a reduction of growth of 80% or more (determined spectrophotometrically) compared with the growth of the control, and MIC50 indicating the lowest drug concentration resulting in a reduction in growth of 50% (determined spectrophotometrically) compared with the growth of the control. The MIC50 was also defined as the spectrophotometric endpoint.

C. krusei 193T = assay type: cell-based; conditions: 24 h, visually and spectrophotometrically, read-out: Antifungal activity, expressed as MIC50
Experimental: as §1, §2, §3, §4, §5, §6, §7

[1] = system: C. parapsilosis ATCC 34136; assay type: cell-based; conditions: visually and spectrophotometrically, read-out: Antifungal activity, expressed as MIC50
Experimental: as §1, §2, §3, §4, §5, §6, §7

C. krusei ATCC 14243 = assay type: cell-based; conditions: visually and spectrophotometrically, read-out: Antifungal activity, expressed as MIC50
Experimental: as §1, §2, §3, §4, §5, §6, §7

C. glabrata 70E = assay type: cell-based; conditions: C. glabrata 70E, 24 h, visually and spectrophotometrically, read-out: Antifungal activity, expressed as MIC50
Experimental: as §1, §2, §3, §4, §5, §6, §7

C. parapsilosis 81E = assay type: cell-based; conditions: 24 h, visually and spectrophotometrically, read-out: Antifungal activity, expressed as MIC50
Experimental: as §1, §2, §3, §4, §5, §6, §7

C. tropicalis 86E = assay type: cell-based; conditions: 24 h, visually and spectrophotometrically, read-out: Antifungal activity, expressed as MIC50
Experimental: as §1, §2, §3, §4, §5, §6, §7

C. albicans ATCC 60193 = assay type: cell-based, Candida albicans; conditions: visually and spectrophotometrically, read-out: Antifungal activity, expressed as MIC50
Experimental: as §1, §2, §3, §4, §5, §6, §7

C. albicans 15T = assay type: cell-based, Candida albicans; conditions: 24 h, visually and spectrophotometrically, read-out: Antifungal activity, expressed as MIC50
Experimental: as §1, §2, §3, §4, §5, §6, §7

C. albicans 53T = assay type: cell-based, Candida albicans; conditions: 24 h, visually and spectrophotometrically, read-out: Antifungal activity, expressed as MIC50
Experimental: as §1, §2, §3, §4, §5, §6, §7

C. albicans 4T = assay type: cell-based, Candida albicans; conditions: 24 h, visually and spectrophotometrically; for MIC50: read-out: Antifungal activity, expressed as MIC50
Experimental: as §1, §2, §3, §4, §5, §6, §7

[2] = Lodderomyces parapsilosis, ATCC34136, 24 h
[3] = Pichia kudriavzevii, ATCC14243, 24 h
[4] = Candida albicans, ATCC60193, 24 h

| Structure (SMILES) | MIC50 (C. parapsilosis 64E; Lodderomyces parapsilosis) | MIC50 (C. krusei 193T; Pichia kudriavzevii) | MIC50 [1, 2] | MIC50 (C. krusei ATCC 14243; [3]) | MIC50 (C. glabrata 70E; Nakaseomyces glabratus) | MIC50 (C. parapsilosis 81E; Lodderomyces parapsilosis) | MIC50 (C. tropicalis 86E; Candida tropicalis) | MIC50 (C. albicans ATCC 60193; [4]) | MIC50 (C. albicans 15T; Candida albicans) | MIC50 (C. parapsilosis 64E) | MIC50 (C. krusei 193T) | MIC50 ([1]; 24 h) | MIC50 (C. krusei ATCC 14243; 24 h) | MIC50 (C. glabrata 70E) | MIC50 (C. parapsilosis 81E) | MIC50 (C. tropicalis 86E) | MIC50 (C. albicans ATCC 60193; 24 h) | MIC50 (C. albicans 15T) | MIC50 (C. albicans 53T) | MIC50 (C. albicans 4T) | further results |
| --- | --- | --- | --- | --- | --- | --- | --- | --- | --- | --- | --- | --- | --- | --- | --- | --- | --- | --- | --- | --- | --- |
| C#CCNC(=N)NCCCCCCCCN1CCCCCCCCNC(=N)NC1=O.O=C(O)C(F)(F)F.O=C(O)C(F)(F)F.O=C(O)C(F)(F)F [Compound 15b, 1-[propargyl]-3-[8-(4-imino-2-oxo-1,3,5-triazacyclotridec-1-yl)octyl]guanidine tri trifluoroacetate] | 40 µM | 40 µM | 40 µM | 80 µM | 80 µM | 80 µM | 5 µM | 2.5 µM | 2.5 µM |  |  |  |  |  |  |  |  |  |  |  | MIC50 (C. albicans 53T; Candida albicans): 5 µM; Antifungal activity, expressed as MIC50 (C. albicans 4T): resistant; MIC50 (C. albicans 4T; Candida albicans): 80 µM |
| CC(C)=CCNC(=N)NCCCCCCCCNCCCCCCCCNC(=N)N [Compound 12f] |  |  |  |  |  |  |  |  |  | >80 µM | 20 µM (≈ 8.47 µg/mL) | >80 µM | 40 µM (≈ 16.9 µg/mL) | 80 µM (≈ 33.9 µg/mL) | 40 µM (≈ 16.9 µg/mL) | 20 µM (≈ 8.47 µg/mL) | 80 µM (≈ 33.9 µg/mL) | 40 µM (≈ 16.9 µg/mL) | 80 µM (≈ 33.9 µg/mL) | 80 µM (≈ 33.9 µg/mL) |  |
| OC(Cn1cncn1)(Cn1cncn1)c1ccc(F)cc1F [F, fluconazole, reference compound] | 32 µM (≈ 9.8 µg/mL) | 418 µM (≈ 128 µg/mL) | 6.5 µM (≈ 1.99 µg/mL) | 209 µM (≈ 64 µg/mL) | 209 µM (≈ 64 µg/mL) | 13 µM (≈ 3.98 µg/mL) | 52 µM (≈ 15.9 µg/mL) | 0.8 µM (≈ 0.245 µg/mL) | 209 µM (≈ 64 µg/mL) |  |  |  |  |  |  |  |  |  |  |  | MIC50 (C. albicans 53T; Candida albicans): 418 µM (≈ 128 µg/mL); MIC50 (C. albicans 4T; Candida albicans): 209 µM (≈ 64 µg/mL) |
| CC=CCNC(=N)NCCCCCCCCN1CCCCCCCCNC(=N)NC1=O [Compound 13d] |  |  |  |  |  |  |  |  |  | 5 µM (≈ 2.18 µg/mL) | 5 µM (≈ 2.18 µg/mL) | 5 µM (≈ 2.18 µg/mL) | 5 µM (≈ 2.18 µg/mL) | 20 µM (≈ 8.71 µg/mL) | 5 µM (≈ 2.18 µg/mL) | 1.25 µM (≈ 0.545 µg/mL) | 2.5 µM (≈ 1.09 µg/mL) | 1.25 µM (≈ 0.545 µg/mL) | 2.5 µM (≈ 1.09 µg/mL) | 1.25 µM (≈ 0.545 µg/mL) |  |

More lines, main results first:

| MIC50 (C. parapsilosis 64E; Lodderomyces parapsilosis) | MIC50 (C. krusei 193T; Pichia kudriavzevii) | MIC50 [1, 2] | MIC50 (C. krusei ATCC 14243; [3]) | MIC50 (C. glabrata 70E; Nakaseomyces glabratus) | MIC50 (C. parapsilosis 81E; Lodderomyces parapsilosis) | MIC50 (C. tropicalis 86E; Candida tropicalis) | MIC50 (C. albicans ATCC 60193; [4]) | MIC50 (C. albicans 15T; Candida albicans) | MIC50 (C. parapsilosis 64E) | MIC50 (C. krusei 193T) | MIC50 ([1]; 24 h) | MIC50 (C. krusei ATCC 14243; 24 h) | MIC50 (C. glabrata 70E) | MIC50 (C. parapsilosis 81E) | MIC50 (C. tropicalis 86E) | MIC50 (C. albicans ATCC 60193; 24 h) | MIC50 (C. albicans 15T) | MIC50 (C. albicans 53T) | MIC50 (C. albicans 4T) | Structure (SMILES) | further results |
| --- | --- | --- | --- | --- | --- | --- | --- | --- | --- | --- | --- | --- | --- | --- | --- | --- | --- | --- | --- | --- | --- |
|  |  |  |  |  |  |  |  |  | 20 µM (≈ 9.43 µg/mL) | 10 µM (≈ 4.72 µg/mL) | 80 µM (≈ 37.7 µg/mL) | 20 µM (≈ 9.43 µg/mL) | 40 µM (≈ 18.9 µg/mL) | 20 µM (≈ 9.43 µg/mL) | 2.5 µM (≈ 1.18 µg/mL) | 2.5 µM (≈ 1.18 µg/mL) | 5 µM (≈ 2.36 µg/mL) | 2.5 µM (≈ 1.18 µg/mL) | 2.5 µM (≈ 1.18 µg/mL) | N=C(NCCCCCCCCN1CCCCCCCCNC(=N)NC1=O)NCc1ccccc1 [Compound 13a] |  |
|  |  |  |  |  |  |  |  |  | >80 µM | 20 µM (≈ 8.99 µg/mL) | >80 µM | 10 µM (≈ 4.5 µg/mL) | 80 µM (≈ 36 µg/mL) | 40 µM (≈ 18 µg/mL) | 20 µM (≈ 8.99 µg/mL) | 40 µM (≈ 18 µg/mL) | 20 µM (≈ 8.99 µg/mL) | 20 µM (≈ 8.99 µg/mL) | 20 µM (≈ 8.99 µg/mL) | CC(C)=CCNC(=N)NCCCCCCCCN1CCCCCCCCNC(=N)NC1=O [Compound 13f] |  |
| > 80 µM | 80 µM | > 80 µM | 40 µM | 80 µM | > 80 µM | 40 µM | 20 µM | 20 µM |  |  |  |  |  |  |  |  |  |  |  | C=C(C)CNC(=N)NCCCCCCCCN1CCCCCCCCNC(=N)NC1=O [Compound 15d, 1[β-methylallyl]-3-[8-(4-imino-2-oxo-1,3,5-triazacyclotridec-1-yl)octyl]guanidine tri trifluoroacetate] | MIC50 (C. albicans 53T; Candida albicans): 40 µM; MIC50 (C. albicans 4T; Candida albicans): 40 µM |
